According to publication PMC4524497 (Bioorganic & medicinal chemistry, 2015):
Values belong to the compound of their own block, whether it stands above or below them.

Legend:
[1] = target: T1, σ2 receptor (Rattus norvegicus, UniProt Q5U3Y7); test: σ2 receptor binding assay with [^3H]DTG in the presence of; details: for Ki: Ki-σ2, [^3H]DTG + 1 μM (+)-pentazocine, rat liver membranes, mean ± SEM
T1 sequence (Q5U3Y7 1-176): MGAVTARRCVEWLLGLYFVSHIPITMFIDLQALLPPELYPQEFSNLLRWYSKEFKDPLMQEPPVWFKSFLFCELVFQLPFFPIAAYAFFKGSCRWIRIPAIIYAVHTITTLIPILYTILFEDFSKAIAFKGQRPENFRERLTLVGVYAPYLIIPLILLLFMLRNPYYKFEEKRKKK

[2] = target: T2, human VAChT (Homo sapiens, UniProt Q16572); test: VAChT competitive binding assay with [^3H]vesamicol
T2 sequence (Q16572 1-532): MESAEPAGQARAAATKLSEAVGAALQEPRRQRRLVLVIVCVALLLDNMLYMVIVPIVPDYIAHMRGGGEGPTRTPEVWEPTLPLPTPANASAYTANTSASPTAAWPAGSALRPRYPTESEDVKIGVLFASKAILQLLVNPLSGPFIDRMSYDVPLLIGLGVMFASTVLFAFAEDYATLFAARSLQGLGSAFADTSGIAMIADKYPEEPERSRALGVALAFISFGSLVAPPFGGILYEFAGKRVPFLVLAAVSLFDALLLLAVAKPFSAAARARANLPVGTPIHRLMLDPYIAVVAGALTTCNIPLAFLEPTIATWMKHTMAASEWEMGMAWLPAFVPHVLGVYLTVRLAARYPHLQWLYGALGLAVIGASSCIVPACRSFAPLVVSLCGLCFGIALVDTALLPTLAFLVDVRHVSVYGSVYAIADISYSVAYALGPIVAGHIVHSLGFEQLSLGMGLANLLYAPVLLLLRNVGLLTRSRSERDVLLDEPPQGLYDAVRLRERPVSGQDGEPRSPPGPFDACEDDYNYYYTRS

[3] = post-injection, human brain SPECT; cited from earlier work
[4] = test system: VAChT; details: brain of both NHP and human subjects; cited from earlier work

Ki [1]: > 10 µM
SMILES: O=C(c1ccc(F)cc1)C1CCN(C2Cc3c(cccc3OCCF)CC2O)CC1 (racemic) [Compound 18a, (1-(8-(2-Fluoroethoxy)-3-hydroxy-1,2,3,4-tetrahydronaphthalen-2-yl)piperidin-4-yl)(4-fluorophenyl)methanone]

selectivity for VAChT versus σ receptors [2]: > 10,000 fold | Ki [1]: > 10 µM | VAChT/ σ2 ([1]; selectivity ratio): >10,000
SMILES: O=C(c1ccc(F)cc1)C1CCN(C2Cc3c(cccc3OCCF)CC2O)CC1 (single isomer, unassigned; (-)) [(-)-18a, (-)-(1-(8-(2-Fluoroethoxy)-3-hydroxy-1,2,3,4-tetrahydronaphthalen-2-yl)piperidin-4-yl)(4-fluorophen-yl)-methanone]

SMILES: OC1Cc2cccc([123I])c2CC1N1CCC(c2ccccc2)CC1 (single isomer, unassigned; (-)) [[^123I]IBVM, (-)-5-[^123I]iodo-benzovesamicol]
time required for quantification of peak uptake in the target regions [3]: at least 6 hr

SMILES: O[C@@H]1Cc2cccc(OCC[18F])c2C[C@H]1N1CCC(c2ccccc2)CC1 [[^18F]FEOBV, [^18F]fluoroethoxy-benzovesamicol]
delayed equilibrium of brain kinetics [4]: > 360 min p.i.
